# Source: PMC6504873, “High-throughput screening of the Plasmodium falciparum cGMP-dependent protein kinase identified a thiazole scaffold which kills erythrocytic and sexual stage parasites” (Scientific Reports, 2019)
# Columns and labels:
# PFI = format: physicochemical
# Method: Dose response assays were performed in duplicate on WT PfPKG, HuPKGIα and a mock assay performed in the absence of enzyme (the counterscreen). Comparison of the PfPKG and HuPKGIα IC50 values gave information on selectivity and the counterscreen identified luminescent false positive compounds (see Materials and Methods). Cytotoxicity assays were also performed using a human hepatoma cell line (HepG2)[30]. […] This set of compounds was clustered by similarity using a complete-linkage algorithm and a threshold of 0.55[31]. A total of 79 clusters and 54 singletons were obtained.
# WT PfPKG = molecular target: T1, WT PfPKG (Plasmodium falciparum, UniProt Q8I719); parameters: species or system P. falciparum; conditions: for LE: ligand efficiency; for LLE: lipophilic ligand efficiency
# T1 construct: recombinant full length wild type (WT) PfPKG; His6 (N); host or cells: E. coli BL21
# From the text: A scoring system was developed to further prioritize interesting compounds. […] Three points were given to compounds that inhibit HuPKGIα at least 3 orders of magnitude less than WT PfPKG. […] We also considered how well the compounds bind to the target by taking into account two physicochemical properties: ligand efficiency (LE, 1.37 x pIC50/number heavy atoms) is a characterization of a compound’s efficiency on a per-heavy-atom basis[51] and lipophilic ligand efficiency (LLE, pIC50 – clogP) is a parameter used in drug design which links potency and lipophilicity in an attempt to estimate drug-likeness[52]. The ClogP coefficient measures lipophilicity. Values of LE ≥ 0.3 and LLE ≥ 5 are typically accepted as good starting points for optimizations efforts.
# TQ PfPKG (PfPKG_T618Q) = molecular target: T2, TQ PfPKG (PfPKG_T618Q) (Plasmodium falciparum, UniProt Q8I719, T618Q); assay: Kinase Glo enzymatic assay, gatekeeper mutant TQ PfPKG; format: biochemical, P. falciparum
# T2 construct: His6 (N); host or cells: E. coli BL21
# Method: Taking advantage of the availability of more than 3,000 thiazole derivatives among the GSK compound collection, cluster 3 was thoroughly investigated for potent and selective inhibitors of WT PfPKG. […] We explored the binding mode by also testing compounds on the gatekeeper mutant enzyme TQ PfPKG. […] These two time points were chosen to give an indication of the speed of kill of the compounds. […] A preliminary safety test was performed on human AuroraB and LCK kinases which often underpin toxicity issues. […] Further assays for compound characterization included determination of solubility and cytotoxicity (HepG2 inhibition). Thiazoles have been previously identified as human BRaf inhibitors that are used to treat melanoma.
# Protein production was outsourced to the Division of Signal Transduction Therapy, University of Dundee. Briefly, the pTRChis expression vectors (Invitrogen) containing an N-terminally His6-tagged PfPKG wildtype and T618Q were used to transform BL21 cells (protocol adapted from[23]). The cells were grown at 37 °C until the OD600 was 0.4–0.6 then the temperature was reduced to 15 °C and the cells were induced with 250 µM IPTG and grown for a further 16–18 hours before harvesting. The His6-PfPKG was purified on Cobalt agarose followed by gel filtration and the protein was dialysed into 25 mM Hepes pH 7.5, 0.1 mM EGTA, 150 mM NaCl, 50% glycerol and 2 mM DTT.
# Initial optimization of the PKG assay was performed manually in 384-well plates and analysed with GraFit 7. The buffer for all assays was 25 mM HEPES pH 7.3 (GIBCO), 10 mM MgCl2 (Sigma), 2 mM DTT (Sigma), 0.01 mM cGMP (Sigma), 0.1 mg/ml BSA (Ambion). Enzymatic activity was tested using a luminescence-based kit (Promega KinaseGlo). Addition of the first reagent depletes the unused ATP and addition of the second reagent converts ADP (product of the kinase reaction) to ATP, which is then measured through a luciferin/luciferase reaction. The amount of luminescence is directly proportional to ATP turnover by the kinase. The kit was chosen because it can be miniaturized to small volumes (i.e. 4 µl) in 1536-well plates, for use in HTS.
# We used PKA peptide substrate (SCP0212, Sigma-Aldrich) for WT and TQ PfPKG, dissolved in milliQ water at a final concentration of 5 mM, and Long S6 peptide substrate (produced at the University of Dundee, sequence […]) for HuPKGIα, dissolved in water at a final concentration of 30 mM.
# We calculated the Michaelis-Menten (Km) constant for ATP and peptide substrate (PKA or Long S6) for all enzymes using GraphPad Prism (Supplementary Figs 2 and 3 and Supplementary Table 3). In order to identify different types of PKG inhibitors, including ATP competitive or non-competitive inhibitors, as well as inhibitors that bind to the peptide substrate pocket, we performed all assays using ATP and peptide substrate at a concentration equal to the Km. We also determined enzyme activity by calculating ATP turnover (Kcat) over the Km (Supplementary Table 3). The Kcat was calculated as (Vmax*slope)/[E] where Vmax is the maximum velocity and [E] is the concentration of the enzyme.
# The plates containing the compounds were prepared at GSK in Upper Providence or Stevenage. Compounds were tested at a single final concentration of 10 µM or in a dose response with a range of concentrations starting from 100 μM to 1.6 nM (1 in 3 serial dilutions). Compounds were dispensed in the plates at the required concentration in a 40 nl volume. All plates (1536-well white Greiner) contained 40 nl of DMSO in lanes 11 and 12 (control 1, 100% enzyme activity) and were empty in lanes 35 and 36 (control 2, 0% enzyme activity). The plates were removed from −20 °C 1 hour before starting the assay. Using a Multidrop Combi dispenser (Thermo Scientific), 2 µl of the buffer containing ATP and the substrate were added to all wells then 2 µl of buffer only were added to column 35 and 36. […]
# [1] = ChromlogD (lipophilicity)
# AuroraB = AuroraB (Homo sapiens, UniProt Q96GD4); assay: Preliminary safety test on human AuroraB kinase; format: biochemical
# Method: (§1) We explored the binding mode by also testing compounds on the gatekeeper mutant enzyme TQ PfPKG. […] A preliminary safety test was performed on human AuroraB and LCK kinases which often underpin toxicity issues. […] Further assays for compound characterization included determination of solubility and cytotoxicity (HepG2 inhibition).
# LCK = LCK (Homo sapiens, UniProt P06239); assay: Preliminary safety test on human LCK kinase; format: biochemical
# Method: as §1
# [2] = AM_Perm (artificial membrane permeability); format: in vitro ADME
# PI3KD = PI3KD (Homo sapiens, UniProt O00329); assay: Preliminary safety test on human PI3KD kinase; format: biochemical
# Sequence of PI3KD (O00329 whole entry): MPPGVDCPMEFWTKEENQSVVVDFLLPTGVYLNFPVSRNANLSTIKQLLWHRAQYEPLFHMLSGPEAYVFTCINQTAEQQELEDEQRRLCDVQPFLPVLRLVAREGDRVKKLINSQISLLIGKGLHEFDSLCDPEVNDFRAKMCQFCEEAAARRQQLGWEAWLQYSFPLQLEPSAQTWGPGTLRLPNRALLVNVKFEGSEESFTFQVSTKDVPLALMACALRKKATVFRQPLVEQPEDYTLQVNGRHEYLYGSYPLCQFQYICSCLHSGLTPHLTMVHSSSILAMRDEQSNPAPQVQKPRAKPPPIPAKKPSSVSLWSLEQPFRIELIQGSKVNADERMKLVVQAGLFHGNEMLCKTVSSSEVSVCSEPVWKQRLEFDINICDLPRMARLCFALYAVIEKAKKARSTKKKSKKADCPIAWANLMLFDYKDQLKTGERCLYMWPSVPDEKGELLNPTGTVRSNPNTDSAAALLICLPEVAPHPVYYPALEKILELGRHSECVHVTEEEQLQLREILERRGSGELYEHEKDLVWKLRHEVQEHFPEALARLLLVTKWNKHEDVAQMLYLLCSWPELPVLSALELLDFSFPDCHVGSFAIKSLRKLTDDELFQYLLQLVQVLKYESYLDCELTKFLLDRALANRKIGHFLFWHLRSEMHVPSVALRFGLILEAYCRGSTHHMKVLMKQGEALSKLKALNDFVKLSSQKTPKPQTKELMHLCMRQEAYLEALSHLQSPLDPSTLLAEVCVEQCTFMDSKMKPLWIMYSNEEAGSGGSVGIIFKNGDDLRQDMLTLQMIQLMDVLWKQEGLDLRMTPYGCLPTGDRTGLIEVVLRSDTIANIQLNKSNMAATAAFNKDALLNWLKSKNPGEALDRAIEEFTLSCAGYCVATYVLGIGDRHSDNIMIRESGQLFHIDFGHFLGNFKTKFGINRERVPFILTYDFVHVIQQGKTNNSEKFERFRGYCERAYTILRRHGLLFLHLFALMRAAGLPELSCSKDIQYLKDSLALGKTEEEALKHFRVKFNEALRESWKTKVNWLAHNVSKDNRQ
# Sequence of PI3KD (P27986 whole entry partner): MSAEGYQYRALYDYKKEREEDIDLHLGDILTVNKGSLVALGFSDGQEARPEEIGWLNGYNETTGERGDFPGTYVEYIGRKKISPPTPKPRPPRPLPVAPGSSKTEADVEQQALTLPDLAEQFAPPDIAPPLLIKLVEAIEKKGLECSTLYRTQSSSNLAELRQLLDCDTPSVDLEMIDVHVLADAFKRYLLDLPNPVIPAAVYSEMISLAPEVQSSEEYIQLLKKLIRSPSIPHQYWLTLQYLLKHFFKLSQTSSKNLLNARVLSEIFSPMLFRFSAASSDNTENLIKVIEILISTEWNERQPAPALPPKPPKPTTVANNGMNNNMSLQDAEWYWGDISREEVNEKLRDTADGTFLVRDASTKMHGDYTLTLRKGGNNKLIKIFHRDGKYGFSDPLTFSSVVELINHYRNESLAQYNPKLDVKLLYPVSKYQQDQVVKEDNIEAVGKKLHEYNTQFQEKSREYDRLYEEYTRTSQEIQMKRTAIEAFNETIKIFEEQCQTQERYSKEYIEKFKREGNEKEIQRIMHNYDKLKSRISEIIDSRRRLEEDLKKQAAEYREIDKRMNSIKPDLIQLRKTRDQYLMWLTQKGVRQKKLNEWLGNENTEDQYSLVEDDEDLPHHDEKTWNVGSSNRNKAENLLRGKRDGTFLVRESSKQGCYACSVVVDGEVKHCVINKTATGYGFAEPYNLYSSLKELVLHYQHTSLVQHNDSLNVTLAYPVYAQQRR
# Sequence of LCK (P06239 whole entry): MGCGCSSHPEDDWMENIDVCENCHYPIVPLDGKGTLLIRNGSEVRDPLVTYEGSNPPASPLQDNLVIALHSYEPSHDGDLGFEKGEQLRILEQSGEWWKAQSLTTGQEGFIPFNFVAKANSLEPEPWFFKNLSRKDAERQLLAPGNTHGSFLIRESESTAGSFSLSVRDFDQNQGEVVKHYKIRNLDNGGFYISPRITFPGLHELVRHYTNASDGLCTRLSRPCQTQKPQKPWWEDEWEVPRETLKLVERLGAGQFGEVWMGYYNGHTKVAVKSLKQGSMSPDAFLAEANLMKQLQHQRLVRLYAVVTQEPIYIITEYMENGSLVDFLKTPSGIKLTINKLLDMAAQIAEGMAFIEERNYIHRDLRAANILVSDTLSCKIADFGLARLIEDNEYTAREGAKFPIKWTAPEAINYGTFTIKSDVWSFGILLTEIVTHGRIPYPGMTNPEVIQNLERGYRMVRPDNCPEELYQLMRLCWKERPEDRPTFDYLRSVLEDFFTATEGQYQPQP
# T1 sequence (Q8I719 whole entry): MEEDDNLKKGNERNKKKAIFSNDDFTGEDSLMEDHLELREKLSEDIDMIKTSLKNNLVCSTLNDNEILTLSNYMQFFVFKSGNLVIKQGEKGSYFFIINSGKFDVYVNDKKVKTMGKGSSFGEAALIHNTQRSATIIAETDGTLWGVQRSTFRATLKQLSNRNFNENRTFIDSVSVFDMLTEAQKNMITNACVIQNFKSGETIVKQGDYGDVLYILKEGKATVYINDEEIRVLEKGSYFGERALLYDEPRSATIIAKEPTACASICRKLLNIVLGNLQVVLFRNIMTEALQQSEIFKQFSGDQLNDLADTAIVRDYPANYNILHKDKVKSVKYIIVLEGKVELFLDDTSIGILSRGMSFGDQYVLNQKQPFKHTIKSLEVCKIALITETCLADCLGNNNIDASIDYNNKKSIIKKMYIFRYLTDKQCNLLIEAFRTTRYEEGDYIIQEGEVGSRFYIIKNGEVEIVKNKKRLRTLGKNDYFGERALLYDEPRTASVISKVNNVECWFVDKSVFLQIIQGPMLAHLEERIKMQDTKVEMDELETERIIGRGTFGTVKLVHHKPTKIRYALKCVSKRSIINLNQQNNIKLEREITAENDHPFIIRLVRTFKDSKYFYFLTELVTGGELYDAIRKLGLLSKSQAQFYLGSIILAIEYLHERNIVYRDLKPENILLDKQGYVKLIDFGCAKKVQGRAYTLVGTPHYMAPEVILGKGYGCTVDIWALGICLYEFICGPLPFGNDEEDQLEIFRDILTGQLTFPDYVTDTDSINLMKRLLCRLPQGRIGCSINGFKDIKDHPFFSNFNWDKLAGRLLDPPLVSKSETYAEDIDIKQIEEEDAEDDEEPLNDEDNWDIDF
# Sequence of AuroraB (Q96GD4 whole entry): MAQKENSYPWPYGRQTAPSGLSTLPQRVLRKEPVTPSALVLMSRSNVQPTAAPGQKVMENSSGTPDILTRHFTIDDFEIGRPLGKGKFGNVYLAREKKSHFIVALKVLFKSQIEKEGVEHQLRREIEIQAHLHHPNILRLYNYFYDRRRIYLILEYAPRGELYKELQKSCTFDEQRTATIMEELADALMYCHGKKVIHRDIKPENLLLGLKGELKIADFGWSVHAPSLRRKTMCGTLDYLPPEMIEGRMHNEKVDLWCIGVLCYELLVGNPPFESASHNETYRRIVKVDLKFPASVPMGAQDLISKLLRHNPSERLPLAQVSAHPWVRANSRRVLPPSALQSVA
# T2 sequence (Q8I719 whole entry T618Q): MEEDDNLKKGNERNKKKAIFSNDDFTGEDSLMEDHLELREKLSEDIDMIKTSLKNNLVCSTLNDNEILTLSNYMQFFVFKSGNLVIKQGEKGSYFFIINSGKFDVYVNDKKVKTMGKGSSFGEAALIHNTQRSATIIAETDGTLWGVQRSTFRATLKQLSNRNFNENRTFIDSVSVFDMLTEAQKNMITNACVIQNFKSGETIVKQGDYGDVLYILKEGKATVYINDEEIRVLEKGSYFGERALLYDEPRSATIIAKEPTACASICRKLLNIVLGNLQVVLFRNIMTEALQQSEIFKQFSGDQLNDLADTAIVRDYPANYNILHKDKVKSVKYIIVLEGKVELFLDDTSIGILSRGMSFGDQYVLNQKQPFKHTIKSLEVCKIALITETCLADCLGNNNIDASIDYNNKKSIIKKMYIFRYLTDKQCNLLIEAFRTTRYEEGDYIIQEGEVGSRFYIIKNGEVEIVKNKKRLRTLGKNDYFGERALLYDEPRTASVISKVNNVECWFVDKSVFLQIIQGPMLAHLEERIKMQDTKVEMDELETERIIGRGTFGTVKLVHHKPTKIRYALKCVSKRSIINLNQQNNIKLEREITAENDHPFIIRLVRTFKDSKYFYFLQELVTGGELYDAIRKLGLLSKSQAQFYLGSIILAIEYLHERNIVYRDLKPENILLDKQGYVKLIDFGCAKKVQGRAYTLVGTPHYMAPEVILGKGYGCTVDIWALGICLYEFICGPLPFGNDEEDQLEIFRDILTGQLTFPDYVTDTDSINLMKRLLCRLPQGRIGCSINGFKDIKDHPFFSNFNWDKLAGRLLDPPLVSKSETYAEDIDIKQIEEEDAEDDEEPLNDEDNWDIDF
SMILES,PFI (PFI),LE (WT PfPKG),LLE (WT PfPKG),IC50 (TQ PfPKG (PfPKG_T618Q)) [µM],chromatographic logD [1],IC50 (AuroraB) [µM],IC50 (LCK) [µM],AM Perm [2] [×10⁻⁶ cm/s],IC50 (PI3KD) [µM]
Cc1ccc(S(C)(=O)=O)cc1Nc1nccc(-c2sc(CC(N)=O)nc2-c2ccccc2)n1 [Compound 3],7.3,0.33,6.0,19.1,3.3,> 31.6,0.251,36.7,0.0794
CNCCOc1cnc(-c2ccoc2C)c(-c2ccc3cnccc3c2)c1 [Compound 13],6.1,0.4,5.1,1.3,2.1,> 31.6,1.3,43.1,> 50.1
COc1ccc(CCNC(=O)CSc2ncnc3[nH]ncc23)cc1OC [Compound 8],5.3,0.37,5.5,22.1,2.3,> 31.6,> 31.6,7,> 50.1
COc1cc(CS(C)(=O)=O)ccc1Nc1nc(Nc2cc(F)ccc2C(N)=O)c2cc[nH]c2n1 [Compound 10],7.3,0.3,4.4,0.0248,3.3,> 31.6,> 31.6,7.7,> 50.1
COc1cccc(Nc2nc(-c3ccncc3)cc(N3CCN(C)CC3)n2)c1 [Compound 9],6.6,0.37,3.9,10,3.6,> 31.6,> 31.6,59.9,> 50.1
NCCNCc1ccc(-c2cc3ccncc3cc2OC2CCNCC2)s1 [Compound 12],2.6,0.33,4.7,0.851,-0.36,10,4,1.2,
CCn1c(-c2nonc2N)nc2c(-c3ccccc3)ncc(CN(C)C3CCN(C)CC3)c21 [Compound 5],7.7,0.3,4.3,21.9,3.7,12.6,12.6,22.9,> 50.1
CCn1cc(-c2ccncn2)c(-c2cccc(NS(=O)(=O)c3cc(F)ccc3F)c2)n1 [Compound 2],8.0,0.33,4.2,> 100,4,> 31.6,7.9,50.1,> 50.1
Nc1nc(Nc2cccc3cnccc23)nn1C(=O)C1CCCCC1 [Compound 16],7.6,0.4,3.6,1.8,4.6,4,> 31.6,33.9,> 50.1
COc1ccc(-c2c(-c3cccc(C(=O)N4CCN(C)CC4)c3)oc3ncnc(N)c23)cc1 [Compound 7],6.6,0.33,5.4,14.1,2.6,3.2,0.4,32.4,39.8
CNS(=O)(=O)c1cccc(Nc2ccnc(Nc3cccc(S(=O)(=O)NC)c3)n2)c1 [Compound 6],6.4,0.33,4.5,0.188,3.4,0.0631,2,12.7,2.5
Nc1ccc2c(-c3ccncc3)c(-c3ccc(Cl)c(O)c3)[nH]c2n1 [Compound 15],6.1,0.44,4.9,24,2.1,4,5,11,10
O=C(c1cccc(OCc2cccnc2)c1)N1CCc2sccc2C1CN1CCCCC1 (centres unmarked) [Compound 14],6.9,0.32,2.9,0.473,3.9,> 31.6,> 31.6,55.1,> 50.1
O=C(N[C@@H](CO)c1ccccc1)c1ccc2cncc(-c3cn[nH]c3)c2n1 [Compound 11],5.9,0.36,4.9,1,1.9,0.2,1,8.6,7.9
CC(C)(CN)c1cc(-c2ccc(Cl)c(O)c2)c(-c2ccncc2)o1 [Compound 4],6.1,0.5,5.5,36.7,3.1,> 31.6,0.126,53.1,> 50.1
